Legend:
lymphocytes [1] = assay: Ex vivo treatment of human blood, TMRE mitochondrial membrane potential of lymphocytes by flow cytometry; format: cell-based; details: whole blood treated ex vivo with 50 μM before staining with SYTO 13 and TMRE
Method: Furthermore, one fraction of blood was treated ex vivo with carbonyl cyanide 3-chlorophenylhydrazone (CCCP), a toxic chemical that is known to disrupt mitochondrial membrane potential.
Blood from a finger prick (approximately 150 μl) was collected into a tube containing 10 μl heparin solution (500 Units/ml; approximately 6% dilution). One 5 μl aliquot of heparinized whole blood was added to a tube with 1 ml Hank's Balance Salt Solution containing SYTO®13 at 5 nM, TMRE at 100 nM, and 20,720 counting beads per ml (beads from Molecular Probes, cat. no. C36950) (i.e., blood diluted another 200-fold). A second fraction of blood was treated with 50 μM CCCP before being stained with SYTO® and TMRE as above. After staining for 30 minutes at room temperature, the samples were analyzed with a FACSCalibur flow cytometer providing 488 nm excitation.
Acquisition was triggered with a FL1 threshold that was set sufficiently high so as to exclude platelets, mature erythrocytes and reticulocytes, thereby restricting acquisition to nucleated cells. By expressing light scatter in linear scale, it was possible to focus on particular subpopulations, for instance lymphocytes that are low in forward and side scatter relative to other nucleated cells (FIG. 4A). […]

reticulocytes = assay: Radioprotectant evaluation using mouse blood: reticulocytes; format: in vivo, C57BL/6J mice; details: 400 mg/kg ip, 30 minutes prior to 1 Gy gamma rays; blood collected 46±3 hrs post-irradiation
Method: In this experiment, one group of five C57BL/6J mice was sham irradiated, whereas two other groups of five mice were exposed to 1 Gy gamma rays. […] 5 μl of whole blood were added to tubes containing 1 ml HBSS with SYTO®13 at 10 nM, TMRE at 100 nM, and 20,720 counting beads per ml (beads from Molecular Probes, cat. no. C36950). After 30 minutes at room temperature, the samples were moved to 4° C. and analyzed with a FACSCalibur flow cytometer providing 488 nm excitation. In the first round of analysis, a forward scatter threshold was used to trigger data acquisition. With the trigger channel set sufficiently low, platelets as well as all blood cell types were acquired. Similar to thiazole orange, SYTO®13 dye in conjunction with light scatter signals was capable of resolving mature erythrocytes, reticulocytes, nucleated cells, platelets, and reticulated platelets. […] Reticulocytes can thus be quantified as a percentage of all erythrocytes, and reticulated platelets can be quantified as a percentage of all platelets. Furthermore, with the incorporation of the TMRE dye, it was possible to enumerate the percentage of reticulocytes that express dysfunctional mitochondrial membranes.

lymphocytes [2] = assay: Radioprotectant evaluation using mouse blood: lymphocytes; format: in vivo, C57BL/6J mice; details: 400 mg/kg ip, 30 minutes prior to 1 Gy gamma rays; blood collected 46±3 hrs post-irradiation
Method: In this experiment, one group of five C57BL/6J mice was sham irradiated, whereas two other groups of five mice were exposed to 1 Gy gamma rays. While one group of irradiated mice was injected with vehicle, the other was injected with the radioprotectant agent amifostine (400 mg/kg injected ip, 30 minutes prior to irradiation). […] 5 μl of whole blood were added to tubes containing 1 ml HBSS with SYTO®13 at 10 nM, TMRE at 100 nM, and 20,720 counting beads per ml (beads from Molecular Probes, cat. no. C36950). After 30 minutes at room temperature, the samples were moved to 4° C. and analyzed with a FACSCalibur flow cytometer providing 488 nm excitation. […] Furthermore, with the incorporation of the TMRE dye, it was possible to enumerate the percentage of lymphocytes that express dysfunctional mitochondrial membranes.

SMILES	TMRE-associated fluorescence of lymphocytes / incidence of TMRE-negative lymphocytes (lymphocytes [1])	TMRE-associated fluorescence of lymphocytes / incidence of TMRE-negative lymphocytes (lymphocytes [1]; listed as carbonyl cyanide 3-chlorophenylhydrazone)	reticulocyte effects of 1 Gy irradiation (decrease of reticulocytes, increase in percentage of reticulocytes with dysfunctional mitochondria) (reticulocytes)	protection against decrease of percentage of lymphocytes by 1 Gy irradiation (lymphocytes [2])
N#CC(C#N)=NNc1cccc(Cl)c1 [CCCP, carbonyl cyanide 3-chlorophenylhydrazone]	increased incidence of events falling into this region	low TMRE-associated fluorescence	–	–
NCCCNCCSP(=O)(O)O [amifostine]	–	–	ameliorated	no appreciable protection

Source: patent publication US8535226B2, “Method for measuring in vivo hematotoxicity with an emphasis on radiation exposure assessment” (Litron Laboratories, Ltd., priority 2007, dated 2013)
